One assay addresses DGKζ (Homo sapiens (Human), UniProt Q13574). Put plainly: Biochemical DGK IC50 assay (ADP-Glo, lipid micelle substrate), DGKζ. As to conditions: full length DGKζ 0.5 nM, ATP 140 μM, DAG 80 μM. In outline:
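Full-length human His-TEV-tagged DGKζ, expressed in Sf9 cells and purified, was run at room temperature on DAG/PS lipid micelles in 50 mM HEPES, 10 mM MgCl2, 0.01 mM CaCl2 buffer. After 1 h reaction, ADP formed was detected by ADP-Glo luminescence. IC50s came from inhibition across increasing compound concentrations.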
For orientation: In ADP-Glo the light output rises with the ADP produced.

The target in another assay is DGKα (Homo sapiens (Human), UniProt P23743). The experiment in a line: Biochemical DGK IC50 assay (ADP-Glo, lipid micelle substrate), DGKα. Further: full length DGKα 7.5 nM. The settings on record: full length DGKα […], ATP 140 μM, DAG 80 μM. In outline: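 Full-length human DGKα assayed by ADP-Glo with DAG/PS lipid micelle substrate at room temperature in 50 mM HEPES, 10 mM MgCl2, 0.01% BSA, 0.1 mM Na3VO4, 0.005% Tween-20, 0.01 mM CaCl2.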
Chain of DGKα (P23743 whole entry): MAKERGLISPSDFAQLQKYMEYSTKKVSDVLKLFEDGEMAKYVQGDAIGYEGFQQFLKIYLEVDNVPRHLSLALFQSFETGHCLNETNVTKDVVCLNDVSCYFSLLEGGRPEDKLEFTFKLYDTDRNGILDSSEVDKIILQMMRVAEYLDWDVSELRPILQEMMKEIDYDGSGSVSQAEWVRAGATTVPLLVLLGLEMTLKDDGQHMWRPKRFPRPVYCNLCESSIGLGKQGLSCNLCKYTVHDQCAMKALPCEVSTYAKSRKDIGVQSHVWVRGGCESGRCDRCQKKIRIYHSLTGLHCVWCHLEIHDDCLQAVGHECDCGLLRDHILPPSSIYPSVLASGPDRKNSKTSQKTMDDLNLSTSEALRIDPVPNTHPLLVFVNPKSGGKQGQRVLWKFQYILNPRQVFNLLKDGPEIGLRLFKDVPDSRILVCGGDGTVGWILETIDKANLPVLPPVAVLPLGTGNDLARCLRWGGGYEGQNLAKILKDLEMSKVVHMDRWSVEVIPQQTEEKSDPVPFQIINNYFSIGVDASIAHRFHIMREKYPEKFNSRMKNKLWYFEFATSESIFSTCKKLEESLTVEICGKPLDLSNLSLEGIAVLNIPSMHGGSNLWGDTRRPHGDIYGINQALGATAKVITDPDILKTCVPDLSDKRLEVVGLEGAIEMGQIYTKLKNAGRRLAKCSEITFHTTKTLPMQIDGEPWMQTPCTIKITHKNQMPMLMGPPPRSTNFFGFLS

Each structure is given as a SMILES string.

Chain of DGKζ (Q13574 other isoform, or with tags, fused parts or gaps): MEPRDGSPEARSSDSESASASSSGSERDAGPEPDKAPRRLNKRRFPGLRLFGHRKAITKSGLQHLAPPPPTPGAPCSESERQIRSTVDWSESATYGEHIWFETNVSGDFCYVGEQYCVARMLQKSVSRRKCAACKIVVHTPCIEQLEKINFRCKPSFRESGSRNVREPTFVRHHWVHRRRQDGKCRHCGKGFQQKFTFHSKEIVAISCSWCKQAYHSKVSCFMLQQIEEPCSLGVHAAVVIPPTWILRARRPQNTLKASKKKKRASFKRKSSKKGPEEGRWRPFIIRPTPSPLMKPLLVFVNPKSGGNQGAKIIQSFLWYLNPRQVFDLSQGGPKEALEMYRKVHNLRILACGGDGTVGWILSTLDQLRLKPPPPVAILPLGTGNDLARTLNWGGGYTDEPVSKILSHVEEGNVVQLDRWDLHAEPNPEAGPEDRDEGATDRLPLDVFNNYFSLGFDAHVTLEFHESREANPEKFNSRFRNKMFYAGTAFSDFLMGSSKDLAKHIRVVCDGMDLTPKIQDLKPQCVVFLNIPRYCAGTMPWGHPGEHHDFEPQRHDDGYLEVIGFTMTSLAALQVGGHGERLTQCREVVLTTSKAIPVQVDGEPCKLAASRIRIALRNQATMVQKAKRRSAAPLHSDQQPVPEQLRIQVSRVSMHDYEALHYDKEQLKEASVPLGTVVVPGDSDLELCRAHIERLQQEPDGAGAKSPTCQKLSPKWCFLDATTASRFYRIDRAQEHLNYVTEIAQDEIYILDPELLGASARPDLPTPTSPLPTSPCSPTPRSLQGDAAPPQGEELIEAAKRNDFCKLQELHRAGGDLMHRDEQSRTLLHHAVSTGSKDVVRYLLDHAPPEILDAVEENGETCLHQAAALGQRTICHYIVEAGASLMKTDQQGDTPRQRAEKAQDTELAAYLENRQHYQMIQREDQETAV

Usually IC50 stands for the point on the concentration scale where inhibition reaches its midpoint. Turning to `CC[C@H]1CN(C(C)c2ccc3c(c2)CCC3(C)C)[C@H](CC)CN1c1cc(=O)n(C)c2cn(CC#N)nc12` (stereo partly drawn) [Compound A66, 2-(7-((2S,5R)-4-(1-(1,1-dimethyl-2,3-dihydro-1H-inden-5-yl)ethyl)-2,5-diethylpiperazin-1-yl)-4-methyl-5-oxo-4,5-dihydro-2H-pyrazolo[4,3-b]pyridin-2-yl)acetonitrile], the IC50 at DGKζ came to 0.096 µM; against DGKα it was 2.25 µM.
For `CC[C@H]1CN(C(C)c2ccc3c(c2)CCO3)[C@H](CC)CN1c1cc(=O)n(C)c2cn(CC#N)nc12` (stereo partly drawn) [Compound A67, 2-(7-((2S,5R)-4-(1-(2,3-dihydrobenzofuran-5-yl)ethyl)-2,5-diethylpiperazin-1-yl)-4-methyl-5-oxo-4,5-dihydro-2H-pyrazolo[4,3-b]pyridin-2-yl)acetonitrile], in that order: 0.071 µM and 0.245 µM.
For `CC(c1ccc2c(c1F)OC(C)(C)O2)N1C[C@H](C)N(c2cc(=O)n(C)c3cn(CC#N)nc23)C[C@H]1C` (stereo partly drawn) [Compound A69, 2-(7-((2S,5R)-4-(1-(4-fluoro-2,2-dimethylbenzo[d][1,3]dioxol-5-yl)ethyl)-2,5-dimethylpiperazin-1-yl)-4-methyl-5-oxo-4,5-dihydro-2H-pyrazolo[4,3-b]pyridin-2-yl)acetonitrile], in that order: 0.02 µM and 4.73 µM.
The like results for `CC(c1ccc2c(c1)OC(C)(C)O2)N1C[C@H](C)N(c2cc(=O)n(C)c3cn(CC#N)nc23)C[C@H]1C` (stereo partly drawn) [Compound A70, 2-(7-((2S,5R)-4-(1-(2,2-dimethylbenzo[d][1,3]dioxol-5-yl)ethyl)-2,5-dimethylpiperazin-1-yl)-4-methyl-5-oxo-4,5-dihydro-2H-pyrazolo[4,3-b]pyridin-2-yl)acetonitrile] were, in that order, 0.031 µM and 12.4 µM.
In the case of `CC[C@H]1CN(C(C)c2ccc3c(c2F)OC(C)(C)O3)[C@H](CC)CN1c1cc(=O)n(C)c2cn(CC#N)nc12` (stereo partly drawn) [Compound A71, 2-(7-((2S,5R)-2,5-diethyl-4-(1-(4-fluoro-2,2-dimethylbenzo[d][1,3]dioxol-5-yl)ethyl)piperazin-1-yl)-4-methyl-5-oxo-4,5-dihydro-2H-pyrazolo[4,3-b]pyridin-2-yl)acetonitrile], the results for the IC50 against DGKζ and on DGKα were 0.004 µM and 1.83 µM, respectively.
Regarding `CC[C@H]1CN(C(C)c2ccc3c(n2)CCC3)[C@H](CC)CN1c1cc(=O)n(C)c2cn(CC#N)nc12` (stereo partly drawn) [Compound A72, 2-(7-((2S,5R)-4-(1-(6,7-dihydro-5H-cyclopenta[b]pyridin-2-yl)ethyl)-2,5-diethylpiperazin-1-yl)-4-methyl-5-oxo-4,5-dihydro-2H-pyrazolo[4,3-b]pyridin-2-yl)acetonitrile], the results for the IC50 against DGKζ and against DGKα were 0.033 µM and 0.027 µM, respectively.
For `CC[C@H]1CN(C(C)c2ccc3c(n2)CCO3)[C@H](CC)CN1c1cc(=O)n(C)c2cn(CC#N)nc12` (stereo partly drawn) [Compound A73, 2-(7-((2S,5R)-4-(1-(2,3-dihydrofuro[3,2-b]pyridin-5-yl)ethyl)-2,5-diethylpiperazin-1-yl)-4-methyl-5-oxo-4,5-dihydro-2H-pyrazolo[4,3-b]pyridin-2-yl)acetonitrile], the half-inhibitory concentration (IC50) on DGKζ turned out to be 0.126 µM; against DGKα it was 0.091 µM.
For `CC[C@H]1CN(C(C)c2cnc3c(c2)CCO3)[C@H](CC)CN1c1cc(=O)n(C)c2cn(CC#N)nc12` (stereo partly drawn) [Compound A74, 2-(7-((2S,5R)-4-(1-(2,3-dihydrofuro[2,3-b]pyridin-5-yl)ethyl)-2,5-diethylpiperazin-1-yl)-4-methyl-5-oxo-4,5-dihydro-2H-pyrazolo[4,3-b]pyridin-2-yl)acetonitrile], in that order: 0.475 µM and 5.82 µM.
With `CC[C@H]1CN(C(C)c2ccc3c(F)cnn3c2)[C@H](CC)CN1c1cc(=O)n(C)c2cn(CC#N)nc12` (stereo partly drawn) [Compound A76, 2-(7-((2S,5R)-2,5-diethyl-4-(1-(3-fluoropyrazolo[1,5-a]pyridin-6-yl)ethyl)piperazin-1-yl)-4-methyl-5-oxo-4,5-dihydro-2H-pyrazolo[4,3-b]pyridin-2-yl)acetonitrile], the concentration for half-maximal inhibition (IC50) at DGKζ was determined as 0.179 µM; at DGKα, 1.6 µM.
For `CC[C@H]1CN(C(C)c2cnc3c(c2)ncn3C)[C@H](CC)CN1c1cc(=O)n(C)c2cn(CC#N)nc12` (stereo partly drawn) [Compound A78, 2-(7-((2S,5R)-2,5-diethyl-4-(1-(3-methyl-3H-imidazo[4,5-b]pyridin-6-yl)ethyl)piperazin-1-yl)-4-methyl-5-oxo-4,5-dihydro-2H-pyrazolo[4,3-b]pyridin-2-yl)acetonitrile], in that order: 1.87 µM and 25 µM.
As to `CC[C@H]1CN(C(C)c2ccc3nscc3c2)[C@H](CC)CN1c1cc(=O)n(C)c2cn(CC#N)nc12` (stereo partly drawn) [Compound A88, 2-(7-((2S,5R)-4-(1-(benzo[c]isothiazol-5-yl)ethyl)-2,5-diethylpiperazin-1-yl)-4-methyl-5-oxo-4,5-dihydro-2H-pyrazolo[4,3-b]pyridin-2-yl)acetonitrile], the half-maximal inhibitory concentration (IC50) on DGKζ stood at 0.01 µM; against DGKα it was 0.051 µM.
For `CC[C@H]1CN(C(C)c2ccc3ccsc3c2)[C@H](CC)CN1c1cc(=O)n(C)c2cn(CC#N)nc12` (stereo partly drawn) [Compound A89, 2-(7-((2S,5R)-4-(1-(benzo[b]thiophen-6-yl)ethyl)-2,5-diethylpiperazin-1-yl)-4-methyl-5-oxo-4,5-dihydro-2H-pyrazolo[4,3-b]pyridin-2-yl)acetonitrile], in that order: 0.034 µM and 0.028 µM.
The like results for `CC(c1ccc2ncsc2c1)N1C[C@H](C)N(c2cc(=O)n(C)c3cn(CC#N)nc23)C[C@H]1C` (stereo partly drawn) [Compound A93, 2-(7-((2S,5R)-4-(1-(benzo[d]thiazol-6-yl)ethyl)-2,5-dimethylpiperazin-1-yl)-4-methyl-5-oxo-4,5-dihydro-2H-pyrazolo[4,3-b]pyridin-2-yl)acetonitrile] were, in that order, 0.099 µM and 0.493 µM.
The like results for `CC[C@H]1CN(C(C)c2ccc3ncsc3c2)[C@H](CC)CN1c1c(Br)c(=O)n(C)c2cn(CC#N)nc12` (stereo partly shown) [Compound A94] were, in that order, 0.974 µM and 1.85 µM.
In the case of `CC[C@H]1CN(C(C)c2ccc3ncsc3c2)[C@H](CC)CN1c1c(C#N)c(=O)n(C)c2cn(CC#N)nc12` (stereo partly drawn) [Compound A95, 7-((2S,5R)-4-(1-(benzo[d]thiazol-6-yl)ethyl)-2,5-diethylpiperazin-1-yl)-2-(cyanomethyl)-4-methyl-5-oxo-4,5-dihydro-2H-pyrazolo[4,3-b]pyridine-6-carbonitrile], the half-inhibitory concentration (IC50) on DGKζ amounted to 0.064 µM; against DGKα it was 0.052 µM.
`CC[C@H]1CN(C(C)c2cc3scnc3cn2)[C@H](CC)CN1c1cc(=O)n(C)c2cn(CC#N)nc12` (stereo partly drawn) [Compound A97, 2-(7-((2S,5R)-2,5-diethyl-4-(1-(thiazolo[4,5-c]pyridin-6-yl)ethyl)piperazin-1-yl)-4-methyl-5-oxo-4,5-dihydro-2H-pyrazolo[4,3-b]pyridin-2-yl)acetonitrile]: the figures for the IC50 against DGKζ and against DGKα were 0.256 µM and 0.502 µM, respectively.
The like results for `CC[C@H]1CN(C(C)c2ccc3ocnc3c2)[C@H](CC)CN1c1cc(=O)n(C)c2cn(CC#N)nc12` (stereo partly shown) [Compound A105] were, in that order, 0.157 µM and 0.058 µM.
For `CC[C@H]1CN(C(C)c2ccc3sc(C)nc3c2)[C@H](CC)CN1c1cc(=O)n(C)c2cn(CC#N)nc12` (stereo partly drawn) [Compound A108, 2-(7-((2S,5R)-2,5-diethyl-4-(1-(2-methylbenzo[d]thiazol-5-yl)ethyl)piperazin-1-yl)-4-methyl-5-oxo-4,5-dihydro-2H-pyrazolo[4,3-b]pyridin-2-yl)acetonitrile], in that order: 0.011 µM and 2.65 µM.
The like results for `CCc1nc2cc(C(C)N3C[C@H](CC)N(c4cc(=O)n(C)c5cn(CC#N)nc45)C[C@H]3CC)ccc2s1` (stereo partly drawn) [Compound A109, 2-(7-((2S,5R)-2,5-diethyl-4-(1-(2-ethylbenzo[d]thiazol-5-yl)ethyl)piperazin-1-yl)-4-methyl-5-oxo-4,5-dihydro-2H-pyrazolo[4,3-b]pyridin-2-y)acetonitrile] were, in that order, 0.018 µM and 2.43 µM.
For the molecule `CC#CCn1cc2c(n1)c(N1C[C@@H](CC)N(C(C)c3ccc4ncsc4n3)C[C@@H]1C)cc(=O)n2C` (stereo partly drawn) [Compound A118, 2-(but-2-yn-1-yl)-7-((2S,5R)-5-ethyl-2-methyl-4-(1-(thiazolo[5,4-b]pyridin-5-yl)ethyl)piperazin-1-yl)-4-methyl-2,4-dihydro-5H-pyrazolo[4,3-b]pyridin-5-one], the IC50 came to 0.232 µM on DGKζ and 0.02 µM against DGKα.
For `CC#CCn1cc2c(n1)c(N1C[C@@H](CC)N(C(C)c3ccc4scnc4c3)C[C@@H]1C)cc(=O)n2C` (stereo partly drawn) [Compound A119, 7-((2S,5R)-4-(1-(benzo[d]thiazol-5-yl)ethyl)-5-ethyl-2-methylpiperazin-1-yl)-2-(but-2-yn-1-yl)-4-methyl-2,4-dihydro-5H-pyrazolo[4,3-b]pyridin-5-one], in that order: 0.859 µM and 0.193 µM.
Turning to `CC[C@H]1CN(C(C)c2ccc(C3CC3)nc2)[C@H](CC)CN1c1cc(=O)n(C)c2cn(C3COC3)nc12` (stereo partly drawn) [Compound A121, 7-((2S,5R)-4-(1-(6-cyclopropylpyridin-3-yl)ethyl)-2,5-diethylpiperazin-1-yl)-4-methyl-2-(oxetan-3-yl)-2,4-dihydro-5H-pyrazolo[4,3-b]pyridin-5-one], the results for the IC50 at DGKζ and at DGKα were 1.47 µM and 3.08 µM, respectively.
Consider `CC[C@H]1CN(C(C)c2ccc(C3CC3)nc2)[C@H](CC)CN1c1cc(=O)n(C)c2cn(CC3COC3)nc12` (stereo partly drawn) [Compound A122, 7-((2S,5R)-4-(1-(6-cyclopropylpyridin-3-yl)ethyl)-2,5-diethylpiperazin-1-yl)-4-methyl-2-(oxetan-3-ylmethyl)-2,4-dihydro-5H-pyrazolo[4,3-b]pyridin-5-one], for which the concentration for half-maximal inhibition (IC50) against DGKζ was above 10 µM; at DGKα, 17.1 µM.

The values above are taken from patent US20250346597A1, “CONDENSED HETEROCYCLIC COMPOUNDS AS INHIBITOR OF DIACYLGLYCEROL KINASES” (BEONE MEDICINES I GMBH, priority 2023, published 2025).
